Source: publication PMC11880385 (Nature Communications, 2025)
Converted amounts (≈) assume the structure as drawn.

Columns and labels:
[1] = tested on: J774A.1 cells infected with C. albicans (SC5314); test: Macrophage killing assay; conditions: for macrophage viability in co-culture: 30 µM; for IC50: Mus musculus, J774.A1, 24 h, read-out: IC50 of rescuing macrophage viability
[2] = tested on: C. albicans (FKS1^T1922C/FKS1^T1922C Eno1-GFP); test: HepG2 / C. albicans co-culture: fungal burden by GFP fluorescence
[3] = Plasma, kidney and brain exposure in mice; conditions: 50 mg/kg oral
[4] = Plasma pharmacokinetic profiling in mice; conditions: female, CD1, mouse, in vivo, po, 25 mg/kg, maximal plasma concentration (Cmax), 25 mg/kg p.o.
C. albicans (CaSS1) = test: C. albicans growth inhibition, two-fold dose-response assay; conditions: for MIC80: Candida albicans, 48 h, read-out: C. albicans MIC80
[5] = Tolerability on repeated oral dosing in uninfected mice; conditions: 25 mg/kg once daily over 3 days
[6] = Mouse liver microsomal stability assay; conditions: mouse liver microsomes; for remaining at 0.5 h, 1 µM: mouse; for metabolic stability category: 30 minutes, 1 μM
[7] = tested on: echinocandin-resistant C. albicans strain (DPL15; FKS1^T1922C/FKS1^T1922C); test: Caspofungin potentiation dose-response assay in echinocandin-resistant strain; conditions: sub-inhibitory caspofungin (3 µg/mL); YPD, 30 °C, 48 h
[8] = tested on: C. albicans (TEF1p-GFP) in J774A.1 cells; test: Visualization of C. albicans filamentation in macrophages; conditions: 4 h incubation; 0.94, 7.5 or 30 µM
Aspergillus fumigatus = conditions: cited from earlier work
Cryptococcus neoformans = conditions: cited from earlier work
[9] = tested on: Nakaseomyces glabratus (formerly referred to as Candida glabrata); conditions: cited from earlier work
[10] = tested on: C. albicans (TEF1p-GFP) in co-culture with J774A.1 cells; test: C. albicans growth in co-culture with macrophages; conditions: 16 h post-infection
C. auris = conditions: cited from earlier work
HepG2-fLuc cells = test: HepG2 / C. albicans co-culture: HepG2 survival by luminescence
[11] = target: T1, C. albicans Yck2 kinase domain (Candida albicans, UniProt A0A1D8PKB4); test: biochemical; assay type: biochemical
T1 sequence (A0A1D8PKB4 37-345): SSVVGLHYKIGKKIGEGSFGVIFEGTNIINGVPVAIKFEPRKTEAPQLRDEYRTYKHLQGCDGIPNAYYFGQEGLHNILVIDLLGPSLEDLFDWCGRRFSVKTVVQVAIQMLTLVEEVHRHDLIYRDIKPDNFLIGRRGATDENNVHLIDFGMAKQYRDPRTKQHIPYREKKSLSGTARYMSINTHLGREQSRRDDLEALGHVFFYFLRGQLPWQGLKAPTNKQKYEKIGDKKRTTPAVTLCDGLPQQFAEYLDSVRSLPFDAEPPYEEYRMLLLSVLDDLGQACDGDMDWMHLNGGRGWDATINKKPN

[12] = tested on: C. albicans Yck2 kinase domain; test: biochemical; assay type: biochemical, Candida albicans; conditions: Ratio of HsCK1α IC50 / CaYck2 IC50
human CK1α = human CK1α (Homo sapiens, UniProt P48729); test: HsCK1α kinase inhibition assay; assay type: biochemical
human CK1α, sequence (P48729 whole entry): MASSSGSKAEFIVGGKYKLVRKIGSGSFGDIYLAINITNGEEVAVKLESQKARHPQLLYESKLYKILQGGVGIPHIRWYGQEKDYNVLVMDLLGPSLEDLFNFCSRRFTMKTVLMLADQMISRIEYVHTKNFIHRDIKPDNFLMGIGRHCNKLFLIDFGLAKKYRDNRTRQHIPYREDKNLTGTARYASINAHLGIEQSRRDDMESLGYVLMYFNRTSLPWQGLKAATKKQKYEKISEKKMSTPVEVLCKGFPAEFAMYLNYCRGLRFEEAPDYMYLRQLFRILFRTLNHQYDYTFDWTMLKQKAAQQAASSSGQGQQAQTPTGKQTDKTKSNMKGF

Row | SMILES | macrophage viability in co-culture [1] | IC50 [1] [nM] | MIC80 (C. albicans (CaSS1)) [µM] | whole-cell antifungal activity against C. albicans (C. albicans (CaSS1); RPMI, 37 °C, 5% CO2) | remaining at 0.5 h, 1 µM [6] [%] | reduction in MIC80 upon addition of caspofungin [7] [fold] | filamentation of C. albicans [8] | IC50 (human CK1α) [nM] | also measured
1 | N#Cc1ccn2c(-c3ccncc3)c(-c3ccc(F)cc3)nc2c1 [Compound 1e] | restoring full viability | 6680 | 50 (≈ 15.7 µg/mL) | robust anti-C. albicans bioactivity | 80 | ≥ 32 | inhibited filamentation | – | concentration clearing the majority of co-cultured C. albicans ([2]; 48 h co-culture with HepG2): 6.25 µM; brain penetration [3]: accumulated in brain tissue at levels higher than the systemic circulation; Cmax [4]: ~36 µM; changes in animal weight or behavior [5]: no changes in animal weight or behavior were observed
2 | Cc1ccc2c(-c3ccncc3)c(-c3ccc(F)cc3)nn2c1 [GW, GW461484A, reference compound] | restoring full viability | 2050 | 12.5 (≈ 3.79 µg/mL) | – | < 1 | ≥ 32 | inhibited filamentation | – | single-agent antifungal activity in vitro (Aspergillus fumigatus): no single-agent antifungal activity was observed; antifungal activity (Cryptococcus neoformans): possesses antifungal activity; single-agent antifungal activity in vitro [9]: no single-agent antifungal activity was observed; metabolic stability category [6]: unstable (compound concentration remaining in the microsomal suspension after incubation for 30 minutes was ≤ 50% of the starting concentration (1 μM)); reduction of C. albicans growth in co-culture [10]: most effective; antifungal activity (C. auris): possesses antifungal activity
3 | Fc1ccc(-c2nn3cc(F)ccc3c2-c2ccncc2)cc1 [Compound 2b] | restoring full viability | – | 25 (≈ 7.68 µg/mL) | robust anti-C. albicans bioactivity | – | ≥ 32 | inhibited filamentation | – | concentrations giving mild reduction in HepG2 viability (HepG2-fLuc cells): > 12.5 µM
4 | CCc1ccn2c(-c3ccncc3)c(-c3ccc(F)cc3)nc2c1 [Compound 1d] | – | – | 50 (≈ 15.9 µg/mL) | – | 0 | – | – | 1700 | concentration at which bioactivity was retained (C. albicans (CaSS1); RPMI, 37 °C, 5% CO2): 50 µM; IC50 [11]: 490 nM; Fungal selectivity (fold) [12]: 3.5 fold
5 | Fc1ccc(-c2nc3cc(F)ccn3c2-c2ccncc2)cc1 [Compound 1f] | restoring full viability | – | 50 (≈ 15.4 µg/mL) | robust anti-C. albicans bioactivity | 75 | ≥ 4 | inhibited filamentation | 1400 | C. albicans in co-culture relative to compound-free controls ([2]; at or above 6.25 µM): ~ 50%; rescue of HepG2 viability (HepG2-fLuc cells; at or above 6.25 µM): partially rescued HepG2 viability
6 | Cc1ccn2c(-c3ccncc3)c(-c3ccc(F)cc3)nc2c1 [Compound 1a] | – | – | > 100 | – | 0 | – | – | 1700 | IC50 [11]: 630 nM; Fungal selectivity (fold) [12]: 2.6 fold; metabolic stability category [6]: unstable (compound concentration remaining in the microsomal suspension after incubation for 30 minutes was ≤ 50% of the starting concentration (1 μM))
7 | N#Cc1ccc2c(-c3ccncc3)c(-c3ccc(F)cc3)nn2c1 [Compound 2a] | restoring full viability | 2170 | 12.5 (≈ 3.93 µg/mL) | robust anti-C. albicans bioactivity | – | ≥ 32 | inhibited filamentation | – | brain penetration [3]: accumulated in brain tissue at levels higher than the systemic circulation; Cmax [4]: ~15 µM; C. albicans MIC80 (C. albicans (CaSS1); wild-type C. albicans, RPMI, 37 °C, 5% CO2, 48 h): 12.5 µM; changes in animal weight or behavior [5]: no changes in animal weight or behavior were observed; reduction of C. albicans growth in co-culture [10]: most effective
